The results in this text go back to patent publication US8440710B2, “HSL inhibitors useful in the treatment of diabetes” (Hoffmann-La Roche Inc., priority 2009, dated 2013).

The test addresses T1, human HSL (Homo sapiens, UniProt Q05469).
T1 construct: generate a full length human HSL ORF with a 3′-His6 tag; made in house; host or cells: High 5 insect cells (baculovirus, pFast-BAC)
T1 sequence (Q05469 1-1076): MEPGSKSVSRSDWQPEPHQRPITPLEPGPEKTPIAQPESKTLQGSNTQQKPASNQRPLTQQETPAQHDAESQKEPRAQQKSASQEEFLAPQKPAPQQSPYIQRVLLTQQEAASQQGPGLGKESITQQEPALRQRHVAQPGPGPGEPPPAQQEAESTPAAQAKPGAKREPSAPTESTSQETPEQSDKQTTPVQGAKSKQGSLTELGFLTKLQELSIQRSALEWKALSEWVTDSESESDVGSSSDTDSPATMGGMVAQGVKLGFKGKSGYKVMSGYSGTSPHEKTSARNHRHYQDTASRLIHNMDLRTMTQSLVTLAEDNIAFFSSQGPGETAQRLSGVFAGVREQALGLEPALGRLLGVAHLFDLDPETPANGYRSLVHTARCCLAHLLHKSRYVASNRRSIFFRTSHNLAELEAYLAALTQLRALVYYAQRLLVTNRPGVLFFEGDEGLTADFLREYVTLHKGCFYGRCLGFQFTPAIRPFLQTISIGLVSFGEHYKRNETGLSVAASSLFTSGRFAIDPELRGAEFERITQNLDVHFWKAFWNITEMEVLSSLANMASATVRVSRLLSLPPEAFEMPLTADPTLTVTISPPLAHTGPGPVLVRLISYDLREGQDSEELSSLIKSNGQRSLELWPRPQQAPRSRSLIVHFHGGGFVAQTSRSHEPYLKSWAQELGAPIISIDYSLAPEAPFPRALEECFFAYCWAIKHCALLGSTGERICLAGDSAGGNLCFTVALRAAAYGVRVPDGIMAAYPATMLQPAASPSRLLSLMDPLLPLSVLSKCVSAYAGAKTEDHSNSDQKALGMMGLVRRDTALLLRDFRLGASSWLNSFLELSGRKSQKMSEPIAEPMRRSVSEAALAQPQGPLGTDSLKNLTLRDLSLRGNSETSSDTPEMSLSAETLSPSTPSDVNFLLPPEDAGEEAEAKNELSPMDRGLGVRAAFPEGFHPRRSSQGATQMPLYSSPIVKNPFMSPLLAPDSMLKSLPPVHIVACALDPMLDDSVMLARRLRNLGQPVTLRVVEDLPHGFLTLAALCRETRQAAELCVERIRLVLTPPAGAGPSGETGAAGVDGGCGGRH
Description: Human Hormone-Sensitive Lipase (HSL) enzyme inhibition assay (colorimetric, DMPT substrate). The format is biochemical. To be noted: human full length HSL-His6, 2,3-dimercapto-1-propanol tributyrate substrate, 37° C. 20 minutes, absorbance at 405 nm; read-out: HSL hum IC50. As for the experimental part:
Production of Human Full Length Hormone Sensitive Lipase-His^6:
1) Cloning: cDNA was prepared from commercial human brain polyA+ RNA and used as a template in overlapping PCR to generate a full length human HSL ORF with a 3′-His6 tag. This full length insert was cloned into the pFast-BAC vector and the DNA-sequence of several single clones was verified. DNA from a correct full length clone with the 3′His6 tag was used to transform the E. coli strain DH10BAC. Resulting bacmid DNA was used to generate a titered baculovirus stock for protein generation. The sequence of the encoded HSL conforms to Swissprot entry Q05469, with the additional C-terminal His6-tag. 2) Protein purification: Culture: 5.5 L, High 5 cells expressing human full length HSL-His^6, 48 hr., containing 25 μM E-64. Cell count: […], 90% viable. Cells were thawed. On ice, cells were suspended in Base Buffer containing 10% glycerol, 25 mM Tris-Cl, 300 mM NaCl, 10 mM imidazole, 10 mM 2-mercaptoethanol, 2 μg pepstatin/ml, 2 μg leupeptin/ml, 2 μg antipain/ml, pH 8.0 at 4° C. in a final volume of 475 ml with 3.75×10^7 cells/ml. […] was done at 3×30 sec., Lubrol PX was added to 0.2% final concentration followed by stirring for 15 min. at 4° C. and centrifugation at 25 k×g, 60 min., 4° C. Soluble proteins were mixed with 60 ml of pre-washed and equilibrated Ni-NTA Agarose (Qiagen 30210) followed by tumbling end-over-end, 45 min., 4° C., centrifugation 1000 rpm 5 min and letting resin settle 5 min. Supernatant was removed, the resin washed in the centrifuge vessel using 5 volumes of Base Buffer containing 0.2% Lubrol PX. Centrifugation was done again, then the supernatant discarded. The resin was poured onto a 0.8 μm membrane in a disposable filter unit (Nalge 450-0080), and washed with 5 volumes of Base Buffer containing 0.2% Lubrol PX. It was then washed with 30 volumes of Base Buffer containing 60 mM imidazole pH 7.5 at 4° C. The protein was eluated with 5 volumes of 25 mM Tris-Cl, 300 mM NaCl, 200 mM imidazole, 10 mM 2-mercaptoethanol, pH 7.5 at 4° C. by tumbling resin with buffer end-over-end, 30 min., 4° C. The resin was captured on a 0.2 μm membrane disposable filter unit (Millipore SCGP U02 RE) and the eluate collected in the reservoir. The eluate was concentrated using a 30 k MWCO centrifugal filter device (Sartorius Vivascience Vivacell 100, VC1022), to 20 ml. It was then dialyzed overnight at 4° C., two times against 2 L of 10% glycerol, 25 mM Tris-Cl, 300 mM NaCl, 0.2 mM EDTA, 0.2 mM DTT, pH 7.5 at 4° C. The protein was filtered using a 0.22 μm disposable filter unit (Millipore SCGP00525). The protein concentration was calculated from absorbance at 280 nm, using 280=0.67 cm-1 mg-1. Yield was 235 mg, total. The protein was stored at −80° C. Human Hormone-Sensitive Lipase (HSL) Enzyme Inhibition Assay:
HSL enzyme activity was measured by a colorimetric assay using 2,3-dimercapto-1-propanol tributyrate (Aldrich, St. Louis, Mo.) as a substrate. Typically, 1.5 mM 2,3-dimercapto-1-propanol tributyrate (DMPT) in 100 mM MOPS, pH 7.2, 0.2 mg/ml fatty acid-free BSA was prepared by sonication at 4° C. to homogenous suspension. Test compounds (2 mM stock in DMSO) were diluted 3 fold in series in DMSO. Compound solutions were diluted 24 fold in 1.5 mM DMPT containing solution and 18 ul per well was added to 384-well microplates (Corning Costar). Twelve microliters per well of human HSL (15 ug/ml) was added and the reaction mixture was incubated at 37° C. for 20 minutes. Six microliters of 12 mM dithio-bis-(2-nitrobenzoic acid) (DTNB) in DMSO plus 1.2% SDS and 0.6% Triton X-100 were added and the mixture was incubated at room temperature for 15 minutes. Product production was monitored by reading absorbance at 405 nm on an Envision Reader (PerkinElmer Life and Analytical Sciences, Shelton, Conn.).

`CCCc1ccc(N2CC[C@]3(CC[C@H](O)CC3)C2=O)cc1` [Example 37, (5α,8α)-8-Hydroxy-2-(4-propyl-phenyl)-2-aza-spiro[4.5]decan-1-one]: the IC50 was 0.21 µM. Regarding `CC(C)c1ccc(N2CC[C@]3(CC[C@H](O)CC3)C2=O)cc1` [Example 38, (5α,8α)-8-Hydroxy-2-(4-isopropyl-phenyl)-2-aza-spiro[4.5]decan-1-one], the IC50 amounted to 0.24 µM. Regarding `O=C1N(c2ccc(C3CC3)cc2)CC[C@]12CC[C@H](O)CC2` [Example 39, (5α,8α)-2-(4-Cyclopropyl-phenyl)-8-hydroxy-2-aza-spiro[4.5]decan-1-one], the IC50 amounted to 0.56 µM. The result for `COc1ccc(N2CC[C@]3(CC[C@H](OCc4ccccc4)CC3)C2=O)cc1` [Example 40, (5α,8α)-8-Benzyloxy-2-(4-methoxy-phenyl)-2-aza-spiro[4.5]decan-1-one] reads 4.59 µM.

Turning to `CCO[C@H]1CC[C@]2(CCN(c3ccc(OC(F)(F)F)cc3)C2=O)CC1` [Example 41, (5α,8α)-8-Ethoxy-2-(4-trifluoromethoxy-phenyl)-2-aza-spiro[4.5]decan-1-one], the IC50 is 0.39 µM. On to `CCCO[C@H]1CC[C@]2(CCN(c3ccc(OC(F)(F)F)cc3)C2=O)CC1` [Example 42, (5α,8α)-8-Propoxy-2-(4-trifluoromethoxy-phenyl)-2-aza-spiro[4.5]decan-1-one], for which the IC50 was found to be 0.32 µM. In the case of `CCc1ccc(N2CC[C@]3(CC[C@H](OCc4ccccc4)CC3)C2=O)cc1` [Example 43, (5α,8α)-8-Benzyloxy-2-(4-ethyl-phenyl)-2-aza-spiro[4.5]decan-1-one] it was 0.74 µM; in that of `CCCNC(=O)O[C@H]1CC[C@]2(CCN(c3ccc(CC)cc3)C2=O)CC1` [Example 44, Propyl-carbamic acid [(5α,8α)-2-(4-ethyl-phenyl)-1-oxo-2-aza-spiro[4.5]dec-8-yl]ester], 1.48 µM; in that of `CCc1ccc(N2CC[C@]3(CC[C@H](OC(=O)NCc4cccc(F)c4)CC3)C2=O)cc1` [Example 45, (3-Fluoro-benzyl)-carbamic acid [(5α,8α)-2-(4-ethyl-phenyl)-1-oxo-2-aza-spiro[4.5]dec-8-yl]ester], 1.11 µM.

`COc1ccc(N2CC[C@]3(CC[C@H](Oc4ccccc4)CC3)C2=O)cc1` [Example 46, (5α,8α)-2-(4-Methoxy-phenyl)-8-phenoxy-2-aza-spiro[4.5]decan-1-one]: the IC50 came out at 4.24 µM. Take `COc1ccc(N2CCC3(CC=CCC3)C2=O)cc1` (stereo not shown) [Example 47, 2-(4-Methoxy-phenyl)-2-aza-spiro[4.5]dec-7-en-1-one]: the IC50 stood at 6.75 µM. Consider `COc1ccc(N2CC[C@]3(CC[C@@H](Oc4ccccc4)CC3)C2=O)cc1` [Example 48, (5α,8β)-2-(4-Methoxy-phenyl)-8-phenoxy-2-aza-spiro[4.5]decan-1-one], for which the IC50 worked out at 1.71 µM.

Consider `O=C1N(c2ccc(OC(F)(F)F)cc2)CC[C@]12CC=CCC2` [Example 50, 2-(4-Trifluoromethoxy-phenyl)-2-aza-spiro[4.5]dec-7-en-1-one], for which the IC50 was determined as 0.2 µM. As for `O=C1N(c2ccc(OC(F)(F)F)cc2)CC[C@]12CC[C@@H]([S+]([O-])c1ccccc1)CC2` (stereo partly drawn) [Example 51, (5α,8β)-8-Benzenesulfinyl-2-(4-trifluoromethoxy-phenyl)-2-aza-spiro[4.5]decan-1-one], the IC50 amounted to 0.02 µM.

With `O=C1N(c2ccc(OC(F)(F)F)cc2)CC[C@]12CC[C@H](Sc1ccccc1)CC2` [Example 52, (5α,8α)-8-Phenylsulfanyl-2-(4-trifluoromethoxy-phenyl)-2-aza-spiro[4.5]decan-1-one], the IC50 is 2.27 µM.

On to `O=C1N(c2ccc(OC(F)(F)F)cc2)CC[C@]12CC[C@@H](S(=O)(=O)c1ccccc1)CC2` [Example 53, (5α,8β)-8-Benzenesulfonyl-2-(4-trifluoromethoxy-phenyl)-2-aza-spiro[4.5]decan-1-one], for which the IC50 amounted to 0.03 µM.

Regarding `O=C1CCC2(CC1)CCN(c1ccc(OC(F)(F)F)cc1)C2=O` [Example 54, 2-(4-Trifluoromethoxy-phenyl)-2-aza-spiro[4.5]decane-1,8-dione], the IC50 came to 0.64 µM. In the case of `CCC[C@]1(O)CC[C@]2(CCN(c3ccc(OC(F)(F)F)cc3)C2=O)CC1` [Example 55, (5α,8α)-8-Hydroxy-8-propyl-2-(4-trifluoromethoxy-phenyl)-2-aza-spiro[4.5]decan-1-one] it was 0.02 µM. The result for `CCC[C@]1(O)CC[C@@]2(CCN(c3ccc(OC(F)(F)F)cc3)C2=O)CC1` [Example 56, (5α,8β)-8-Hydroxy-8-propyl-2-(4-trifluoromethoxy-phenyl)-2-aza-spiro[4.5]decan-1-one] reads 0.57 µM; that for `C[C@]1(O)CC[C@]2(CCN(c3ccc(OC(F)(F)F)cc3)C2=O)CC1` [Example 57, (5α,8α)-8-Hydroxy-8-methyl-2-(4-trifluoromethoxy-phenyl)-2-aza-spiro[4.5]decan-1-one], 0.07 µM; that for `C[C@]1(O)CC[C@@]2(CCN(c3ccc(OC(F)(F)F)cc3)C2=O)CC1` [Example 58, (5α,8β)-8-Hydroxy-8-methyl-2-(4-trifluoromethoxy-phenyl)-2-aza-spiro[4.5]decan-1-one], 0.95 µM.

`CC1=CC[C@@]2(CC1)CCN(c1ccc(OC(F)(F)F)cc1)C2=O` [Example 59, 8-Methyl-2-(4-trifluoromethoxy-phenyl)-2-aza-spiro[4.5]dec-7-en-1-one]: the IC50 was 1.6 µM.

As a reminder, the IC50 is the point on the concentration scale where inhibition reaches its midpoint.
